{"source": "the supplement of paper PMC11061612", "key": {"[1]": {"tested_on": "U-2-OS (Osteosarcoma)", "assay": "combination Emax (second highest fraction inhibited in the dose matrix, 72 h); higher = more inhibition; extreme values may be limits of the assay", "summary_of_the_method": "(§1)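 Bliss excess equals the observed combination effect minus the expected value EA + EB − EA·EB, where EA and EB are the effects of each agent alone. Combination Emax is the second-highest inhibition within the matrix. Inhibition was scaled from CellTiter-Glo 2.0 luminescence, with 0 set by vehicle wells and 1 by blank wells, after 72 hours of two-drug dosing of cells plated in 1536-well plates.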"}, "[2]": {"tested_on": "CAPAN-2 (Pancreatic Carcinoma)", "assay": "combination Emax (second highest fraction inhibited in the dose matrix, 72 h); higher = more inhibition; extreme values may be limits of the assay", "summary_of_the_method": "as §1"}, "[3]": {"tested_on": "NY (Osteosarcoma)", "assay": "combination Emax (second highest fraction inhibited in the dose matrix, 72 h); higher = more inhibition; extreme values may be limits of the assay", "summary_of_the_method": "as §1"}, "[4]": {"tested_on": "ECC10 (Gastric Carcinoma)", "assay": "combination Emax (second highest fraction inhibited in the dose matrix, 72 h); higher = more inhibition; extreme values may be limits of the assay", "summary_of_the_method": "as §1"}, "[5]": {"tested_on": "FU97 (Gastric Carcinoma)", "assay": "combination Emax (second highest fraction inhibited in the dose matrix, 72 h); higher = more inhibition; extreme values may be limits of the assay", "summary_of_the_method": "as §1"}, "[6]": {"tested_on": "KARPAS-422 (B-Cell Non-Hodgkin's Lymphoma)", "assay": "combination Emax (second highest fraction inhibited in the dose matrix, 72 h); higher = more inhibition; extreme values may be limits of the assay", "summary_of_the_method": "as §1"}, "[7]": {"tested_on": "TT (Thyroid Gland Carcinoma)", "assay": "combination Emax (second highest fraction inhibited in the dose matrix, 72 h); higher = more inhibition; extreme values may be limits of the assay", "summary_of_the_method": "as §1"}, "[8]": {"tested_on": "NCI-H64 (Small Cell Lung Carcinoma)", "assay": "combination Emax (second highest fraction inhibited in the dose matrix, 72 h); higher = more inhibition; extreme values may be limits of the assay", "summary_of_the_method": "as §1"}, "[9]": {"tested_on": "LN-405 (Glioblastoma)", "assay": "combination Emax (second highest fraction inhibited in the dose matrix, 72 h); higher = more inhibition; extreme values may be limits of the assay", "summary_of_the_method": "as §1"}, "[10]": {"tested_on": "IGR-37 (Melanoma)", "assay": "combination Emax (second highest fraction inhibited in the dose matrix, 72 h); higher = more inhibition; extreme values may be limits of the assay", "summary_of_the_method": "as §1"}, "[11]": {"tested_on": "VCaP (Prostate Carcinoma)", "assay": "combination Emax (second highest fraction inhibited in the dose matrix, 72 h); higher = more inhibition; extreme values may be limits of the assay", "summary_of_the_method": "as §1"}, "[12]": {"tested_on": "BICR22 (Oral Cavity Carcinoma)", "assay": "combination Emax (second highest fraction inhibited in the dose matrix, 72 h); higher = more inhibition; extreme values may be limits of the assay", "summary_of_the_method": "as §1"}, "[13]": {"tested_on": "ONS-76 (Other Solid Carcinomas)", "assay": "combination Emax (second highest fraction inhibited in the dose matrix, 72 h); higher = more inhibition; extreme values may be limits of the assay", "summary_of_the_method": "as §1"}, "[14]": {"tested_on": "HCC1954 (Breast Carcinoma)", "assay": "combination Emax (second highest fraction inhibited in the dose matrix, 72 h); higher = more inhibition; extreme values may be limits of the assay", "summary_of_the_method": "as §1"}, "[15]": {"tested_on": "PANC-10-05 (Pancreatic Carcinoma)", "assay": "combination Emax (second highest fraction inhibited in the dose matrix, 72 h); higher = more inhibition; extreme values may be limits of the assay", "summary_of_the_method": "as §1"}, "[16]": {"tested_on": "COLO-320-HSR (Colorectal Carcinoma)", "assay": "combination Emax (second highest fraction inhibited in the dose matrix, 72 h); higher = more inhibition; extreme values may be limits of the assay", "summary_of_the_method": "as §1"}, "[17]": {"tested_on": "NCI-H1581 (Non-Small Cell Lung Carcinoma)", "assay": "combination Emax (second highest fraction inhibited in the dose matrix, 72 h); higher = more inhibition; extreme values may be limits of the assay", "summary_of_the_method": "as §1"}, "[18]": {"tested_on": "NCI-H2591 (Mesothelioma)", "assay": "combination Emax (second highest fraction inhibited in the dose matrix, 72 h); higher = more inhibition; extreme values may be limits of the assay", "summary_of_the_method": "as §1"}, "[19]": {"tested_on": "CCK-81 (Colorectal Carcinoma)", "assay": "combination Emax (second highest fraction inhibited in the dose matrix, 72 h); higher = more inhibition; extreme values may be limits of the assay", "summary_of_the_method": "as §1"}, "[20]": {"tested_on": "NCI-H1666 (Lung Adenocarcinoma)", "assay": "Bliss excess, mean over the matrix (fraction); higher = more synergy", "summary_of_the_method": "as §1"}}, "data": [{"compound": "CS(=O)(=O)CCNCc1ccc(-c2ccc3ncnc(Nc4ccc(OCc5cccc(F)c5)c(Cl)c4)c3c2)o1", "note": "[Lapatinib] + NC1(c2ccc(-c3nc4ccn5c(=O)[nH]nc5c4cc3-c3ccccc3)cc2)CCC1 [MK-2206] (first compound max 10 µM, 7x7, partner max 10 µM)", "values": [{"measurement": "combination Emax", "setting": "[1]", "value": 0.257}, {"measurement": "combination Emax", "setting": "[2]", "value": 0.299}, {"measurement": "combination Emax", "setting": "[3]", "value": 0.246}, {"measurement": "combination Emax", "setting": "[4]", "value": 0.972}, {"measurement": "combination Emax", "setting": "[5]", "value": 0.795}, {"measurement": "combination Emax", "setting": "[6]", "value": 0.986}, {"measurement": "combination Emax", "setting": "[7]", "value": 0.625}, {"measurement": "combination Emax", "setting": "[8]", "value": 0.533}, {"measurement": "combination Emax", "setting": "[9]", "value": 0.789}, {"measurement": "combination Emax", "setting": "[10]", "value": 0.901}, {"measurement": "combination Emax", "setting": "[11]", "value": 0.478}, {"measurement": "combination Emax", "setting": "[12]", "value": 0.93}, {"measurement": "combination Emax", "setting": "[13]", "value": 0.783}, {"measurement": "combination Emax", "setting": "[14]", "value": 0.939}, {"measurement": "combination Emax", "setting": "[15]", "value": 0.613}, {"measurement": "combination Emax", "setting": "[16]", "value": 0.925}, {"measurement": "combination Emax", "setting": "[17]", "value": 0.462}, {"measurement": "combination Emax", "setting": "[18]", "value": 0.418}, {"measurement": "combination Emax", "setting": "[19]", "value": 0.985}, {"measurement": "Bliss excess", "setting": "[20]", "value": -0.0093}]}]}
